The values that follow come from patent publication US20050196744A1 (priority 2004, published 2005).

Values joined by “and” are separate entries in the source; they are usually repeats but may differ in a detail not shown here. Equal values may be shown once. Marks after values point to notes of the source that are not given here.

The target of data set [1] is T1, D79E DAT (Rattus norvegicus, UniProt P23977, D79E).
T1 construct: expressed in transfected cells; host or cells: CHO-K1, stably transfected; intact attached monolayers
T1 sequence (P23977 1-619 D79E): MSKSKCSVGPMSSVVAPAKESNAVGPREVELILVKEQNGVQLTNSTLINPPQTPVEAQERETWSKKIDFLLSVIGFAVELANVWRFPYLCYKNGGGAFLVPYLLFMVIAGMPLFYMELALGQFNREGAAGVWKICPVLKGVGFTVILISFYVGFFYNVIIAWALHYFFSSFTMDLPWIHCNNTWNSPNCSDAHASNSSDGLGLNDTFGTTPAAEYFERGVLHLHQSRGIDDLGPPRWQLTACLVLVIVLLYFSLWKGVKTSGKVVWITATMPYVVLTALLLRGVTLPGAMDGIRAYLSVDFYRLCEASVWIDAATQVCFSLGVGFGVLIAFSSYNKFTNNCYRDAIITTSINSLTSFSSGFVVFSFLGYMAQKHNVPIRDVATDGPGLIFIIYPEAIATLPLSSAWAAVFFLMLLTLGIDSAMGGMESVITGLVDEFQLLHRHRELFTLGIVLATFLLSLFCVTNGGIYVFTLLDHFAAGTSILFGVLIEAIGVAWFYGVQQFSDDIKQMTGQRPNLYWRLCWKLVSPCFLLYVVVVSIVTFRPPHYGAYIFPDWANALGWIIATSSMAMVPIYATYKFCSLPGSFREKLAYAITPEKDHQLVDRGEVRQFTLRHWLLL
Description: [3H]-dopamine uptake and uptake inhibition, CHO cells stably expressing D79E DAT. In kind it is cell-based.

The target of data set [2] is T2, WT DAT (Rattus norvegicus, UniProt P23977).
T2 construct: expressed in transfected cells; host or cells: CHO-K1, stably transfected (G-418 selection); intact monolayers in A1 and A3, membranes in A5
Put plainly: [3H]-dopamine uptake and uptake inhibition, CHO cells stably expressing WT DAT. Format: cell-based.

Data set [3] has as its target T1, D79E DAT. Put plainly: [3H]-WIN 35,428 binding / displacement at CHO cells stably expressing D79E DAT. Particulars: for loss of binding affinity ([3H]-WIN 35,428 displacement) caused by the D79E mutation (D79E vs WT DAT): CHO cells, comparison of Ki values. The protocol:
(§1) Ligand binding assays. […] Nonradioactive competitor concentrations were as indicated above for uptake inhibition. […] Membranes were aspirated with a Brandel harvester onto GF/B glass-fiber filter paper, washed with 3×5 ml cold binding buffer, and the filters measured for radioactivity via scintillation counting. For all binding assays, data were analyzed with the GraphPad Prism 2.0 software to obtain Kd, Ki and Bmax values.

The target of data set [4] is T2, WT DAT. Description: [3H]-WIN 35,428 binding / displacement at intact CHO cells stably expressing WT DAT. The protocol: as §1
A further data set relates to intact naïve CHO cells. Put plainly: [3H]-WIN 35,428 low affinity site of intact naïve CHO cells. In kind it is binding. Particulars: intact naïve (untransfected) CHO cells. How it is done:
To further address this steric issue, dihydroxy-benzylamine (DHBA) was employed as a potential DAT substrate. […] Ligand binding assays were conducted under conditions that matched those for assaying uptake inhibition.

Substrate in data set [5]: NCCc1ccc(O)c(O)c1
Put plainly: cells, lysate or membranes. Particulars: 22° C., KRH buffer, mean ± standard error, pH 7.3.

[6] abbreviates: CHO cells, comparison of Ki values.
The mark [7] stands for this setting: DAT substrates, CHO cells, D79E DAT, 22° C., KRH buffer, mean ± standard error, read-out: Ki, inhibition of [3H]-DA uptake.
[8] abbreviates: DAT substrates, CHO cells, WT DAT, 22° C., KRH buffer, mean ± standard error, read-out: Ki, inhibition of [3H]-DA uptake.
[9] abbreviates: DAT substrates, intact CHO cells, WT DAT, 1 nM [3H]-WIN 35,428, 15 min, 22° C., read-out: Ki, [3H]-WIN inhibition (binding affinity).
[10] abbreviates: DAT substrates, intact CHO cells, D79E DAT, 1 nM [3H]-WIN 35,428, 15 min, 22° C., read-out: Ki, [3H]-WIN inhibition (binding affinity).

`NCCc1ccc(O)c(O)c1` [Dopamine, dopamine]: the “Vmax/Bmax (dopamine turnover rate)” value at D79E DAT [1] (D79E DAT CHO cells, Bmax from [3H]-WIN 35,428 saturation binding) was determined as 7.9 min⁻¹; at WT DAT [2] (WT DAT CHO cells, Bmax from [3H]-WIN 35,428 saturation binding), 34.1 min⁻¹. Moreover, the “Vmax of dopamine uptake” value on D79E DAT [1] (D79E DAT CHO cells, dopamine at 0.1 Ci/mmol, 5 min, 22° C.) was 48 ± 4^a pmol/mg/min; on WT DAT [2] (WT DAT CHO cells, dopamine at 0.1 Ci/mmol, 5 min, 22° C.) it was 348 ± 22 pmol/mg/min. Further, the “decrease in DAT dopamine turnover rate rendered by the D79E mutation” value at D79E DAT [1] (corrected for fewer transporters at the cell surface) is on record as “approximately 4 fold”. In addition, the “WT DAT turnover rate higher than that for D79E DAT CHO cells” value at WT DAT [2] ([3H]-dopamine uptake kinetics, CHO cells) came out at 7 fold. Moreover, the “loss of binding affinity ([3H]-WIN 35,428 displacement) caused by the D79E mutation (D79E vs WT DAT)” value (“loss of binding affinity … (D79E vs WT DAT)” for short) on D79E DAT [3] is “almost identical”.
As for `OC1(c2ccc(Cl)cc2)c2ccccc2C2=NCCN21` (stereo not shown) [Mazindol, mazindol], the Ki at D79E DAT [1] was determined as 0.047 ± 0.004 µM; on WT DAT [2], 0.031 ± 0.003 µM; on WT DAT [4] it was 0.013 ± 0.001 µM; on D79E DAT [3], 0.041 ± 0.003 µM. Besides, the “loss of dopamine uptake inhibition potency caused by the D79E mutation (D79E vs WT DAT)” value on D79E DAT [1] (setting [6]) is recorded as “no effect”.
For the molecule `COC(=O)C(c1ccccc1)C1CCCCN1` (stereo not shown) [Methylphenidate, methylphenidate], the Ki was 0.161 ± 0.009 µM at D79E DAT [1] and 0.167 ± 0.002 µM on D79E DAT [3]. On D79E DAT [1] (setting [6]), the “loss of dopamine uptake inhibition potency caused by the D79E mutation (D79E vs WT DAT)” value is “no effect”.
Regarding `NC[C@H](O)c1ccc(O)c(O)c1` [Norepinephrine], on D79E DAT [1] (setting [6]), the “loss of dopamine uptake inhibition potency caused by the D79E mutation (D79E vs WT DAT)” value is reported as “equally effective”. The Ki on D79E DAT [1] (setting [7]) is 5.2 ± 0.3 µM; at WT DAT [2] (setting [8]) it was 5.4 µM; on WT DAT [4] (setting [9]), 2.3 µM; on D79E DAT [3] it was 5.5 ± 0.7 µM. On D79E DAT [3], the “loss of binding affinity … (D79E vs WT DAT)” value is given as 2 fold.
The term Kd denotes the constant that tells how readily two partners part at equilibrium. For the molecule `COC(=O)[C@H]1[C@@H](c2ccc(F)cc2)C[C@@H]2CC[C@H]1N2C` [WIN 35,428], the “loss of dopamine uptake inhibition potency caused by the D79E mutation (D79E vs WT DAT)” value at D79E DAT [1] (setting [6]) is on record as “no effect”. Moreover, the Kd in the data set on intact naïve CHO cells is above 1 µM. Besides, the “specific binding of [3H]-WIN 35,428” value at D79E DAT [3] (D79E DAT, suspended cells or cell membrane preparation in KRH uptake buffer) is “undetectable”.
Take `NCCc1cccc(O)c1` [m-Tyramine]: the “loss of dopamine uptake inhibition potency caused by the D79E mutation (D79E vs WT DAT)” value on D79E DAT [1] (setting [6]) is reported as “unchanged”. The Ki at D79E DAT [1] (setting [7]) came to 1.2 ± 0.3 µM; on WT DAT [2] (setting [8]), 1.4 ± 0.3 µM; on WT DAT [4] (setting [9]), 1 µM; at D79E DAT [3] (setting [10]), 6.6 ± 1.2 µM.
Regarding `NCCc1ccc(O)cc1` [p-Tyramine], on D79E DAT [1] (setting [6]), the “loss of dopamine uptake inhibition potency caused by the D79E mutation (D79E vs WT DAT)” value worked out at 2 fold. The Ki came out at 3.3 ± 0.4 µM at D79E DAT [1] (setting [7]), 1.7 ± 0.1 µM on WT DAT [2] (setting [8]), 0.8 µM on WT DAT [4] (setting [9]) and 4.3 ± 0.5 µM at D79E DAT [3] (setting [10]).
For dihydroxybenzylamine [DHBA], the “Ki at D79E DAT relative to the Ki value for dopamine binding at WT DAT (higher)” value at D79E DAT [1] is given as 377 fold. Also, the “Ki for uptake inhibition at D79E DAT relative to the dopamine Km value at WT DAT (higher)” value at D79E DAT [1] worked out at 460 fold. For the same molecule, the “potency in inhibiting [3H]-dopamine uptake, higher at D79E DAT compared to WT DAT” value at D79E DAT [1] (setting [6]) was found to be 7 fold. The Ki on D79E DAT [1] (setting [7]) is 782 ± 22 µM; on WT DAT [2] (setting [8]) it was 5760 ± 540 µM; at WT DAT [4] (setting [9]), 800 µM and 801 µM; at D79E DAT [3] (setting [10]), 791 ± 27 µM. Moreover, the “more potent as inhibitor of [3H]-WIN 35,428 binding than as inhibitor of [3H]-dopamine uptake at WT DAT” value on WT DAT [4] (intact CHO cells stably expressing WT DAT) is 7 fold. The “loss of binding affinity … (D79E vs WT DAT)” value on D79E DAT [3] was “identical”. At D79E DAT [3] (intact CHO cells, D79E DAT), the “potency of inhibition of [3H]-WIN 35,428 binding compared with potency for inhibition of [3H]-dopamine uptake at D79E DAT” value is reported as “agrees well”.

B1: WT DAT (Rattus norvegicus) (protein)
chain: MSKSKCSVGPMSSVVAPAKESNAVGPREVELILVKEQNGVQLTNSTLINPPQTPVEAQERETWSKKIDFLLSVIGFAVDLANVWRFPYLCYKNGGGAFLVPYLLFMVIAGMPLFYMELALGQFNREGAAGVWKICPVLKGVGFTVILISFYVGFFYNVIIAWALHYFFSSFTMDLPWIHCNNTWNSPNCSDAHASNSSDGLGLNDTFGTTPAAEYFERGVLHLHQSRGIDDLGPPRWQLTACLVLVIVLLYFSLWKGVKTSGKVVWITATMPYVVLTALLLRGVTLPGAMDGIRAYLSVDFYRLCEASVWIDAATQVCFSLGVGFGVLIAFSSYNKFTNNCYRDAIITTSINSLTSFSSGFVVFSFLGYMAQKHNVPIRDVATDGPGLIFIIYPEAIATLPLSSAWAAVFFLMLLTLGIDSAMGGMESVITGLVDEFQLLHRHRELFTLGIVLATFLLSLFCVTNGGIYVFTLLDHFAAGTSILFGVLIEAIGVAWFYGVQQFSDDIKQMTGQRPNLYWRLCWKLVSPCFLLYVVVVSIVTFRPPHYGAYIFPDWANALGWIIATSSMAMVPIYATYKFCSLPGSFREKLAYAITPEKDHQLVDRGEVRQFTLRHWLLL
As usually defined, the Km is the concentration of substrate that gives half-maximal velocity. On to B1, for which the Km in data set [5] (other: CHO cells stably expressing WT DAT) was found to be 1.7 ± 0.3 µM.

B2: D79E DAT (Rattus norvegicus; D79E) (protein)
chain: MSKSKCSVGPMSSVVAPAKESNAVGPREVELILVKEQNGVQLTNSTLINPPQTPVEAQERETWSKKIDFLLSVIGFAVELANVWRFPYLCYKNGGGAFLVPYLLFMVIAGMPLFYMELALGQFNREGAAGVWKICPVLKGVGFTVILISFYVGFFYNVIIAWALHYFFSSFTMDLPWIHCNNTWNSPNCSDAHASNSSDGLGLNDTFGTTPAAEYFERGVLHLHQSRGIDDLGPPRWQLTACLVLVIVLLYFSLWKGVKTSGKVVWITATMPYVVLTALLLRGVTLPGAMDGIRAYLSVDFYRLCEASVWIDAATQVCFSLGVGFGVLIAFSSYNKFTNNCYRDAIITTSINSLTSFSSGFVVFSFLGYMAQKHNVPIRDVATDGPGLIFIIYPEAIATLPLSSAWAAVFFLMLLTLGIDSAMGGMESVITGLVDEFQLLHRHRELFTLGIVLATFLLSLFCVTNGGIYVFTLLDHFAAGTSILFGVLIEAIGVAWFYGVQQFSDDIKQMTGQRPNLYWRLCWKLVSPCFLLYVVVVSIVTFRPPHYGAYIFPDWANALGWIIATSSMAMVPIYATYKFCSLPGSFREKLAYAITPEKDHQLVDRGEVRQFTLRHWLLL
As to B2, in data set [5] (other: CHO cells stably expressing D79E DAT), the Km is 2.3 ± 0.3^ μM.
